Data: paper PMC5481773, “Structural insights into the function of ZRANB3 in replication stress response” (Nature Communications, 2017)

Key:
ZRANB3 = ZRANB3 nuclease assay with non-hydrolysable ATP analogues; assay type: biochemical, Human; conditions: wild-type ZRANB3, fluorescently labelled DNA substrate, native PAGE (Fig. 3d)
Excerpt: Figure 3 Characterisation of the ZRANB3 HNH active site. (a) Overlay of the T4 endonuclease VII (yellow) and the ZRANB3 HNH (white) structures. […] (b) Overlay of the T4 endonuclease VII (yellow, labels in italics) and the ZRANB3 HNH (white) structures. Mg^2+ ion in T4 endonuclease is shown as a purple sphere. His1021, Asp1020 and His1045 in the HNH structure overlap with the active site residues of T4 endonuclease VII. (c) Nuclease assay with the wild-type and mutant ZRANB3 proteins in the presence and absence of ATP. Reactions were analysed by native poly-acrylamide gel electrophoresis. Indicated are mobilities of the fluorescently labelled DNA substrate and product. (d) Nuclease assay with non-hydrolysable ATP homologues. Shown are controls with the wild-type ZRANB3 and the ATPase dead K65R mutant in the presence of ATP.
Oligonucleotides used in the nuclease assays (5′-[…]-[…]-3′ and Cy3 5′-end-labelled 5′-[…]-[…]-3′) were incubated in 10 mM Tris-HCl pH 7.5, 50 mM NaCl for 3 min at 94 °C, after which the reactions were allowed to gradually cool down.
The nuclease assays with ZRANB3 was performed essentially as described in ref. [9]. Briefly, reaction mixtures containing the indicated nuclease (200 nM) and fluorescently labelled DNA substrate (10 nM) in 10 μl of reaction buffer (50 mM Tris-HCl; 50 mM NaCl; 5 mM MgCl2; 2 mM ATP (Sigma); pH 7.5) were incubated at 30 °C for 60 min. The reactions were stopped by incubation with 0.1% SDS and 4 mg ml^−1 of proteinase K at 30 °C for 45 min. The reactions were then mixed with sucrose (10% final concentration) and resolved in a 10% polyacrylamide gel in 0.5 × TBE buffer (45 mM Tris-borate, 1 mM EDTA; pH 7.5). The fluorescent DNA species were visualized and quantified using Pharos Mx imager and Quantity one software (BioRad).

PCNA = PCNA pull-down with biotinylated PIP box and APIM motif peptides; assay type: binding; conditions: biotinylated peptides on streptavidin beads, recombinant PCNA, Western blotting with PCNA antibody (Fig. 4c)
Experimental: Figure 4 Stimulation of the ZRANB3 nuclease activity by PCNA. (a) Stimulation of FEN1 and ZRANB3 nuclease activities by PCNA. FEN1 or ZRANB3 nucleases were incubated with the DNA substrate and increasing concentrations of PCNA (0.375, 0.75, 1.5 and 3 μM), in the presence (ZRANB3) or absence (FEN1) of ATP. (b) Domain structure of ZRANB3. Conservation of the PIP box and the APIM motif residues among ZRANB3 proteins are shown in the alignments below. Mutated conserved residues in the PIP box and the APIM motif are indicated by arrows. (c) Interactions of the ZRANB3 PIP box and APIM motif with PCNA. Biotinylated PIP box and APIM motif peptides were bound to streptavidin beads and incubated with recombinant PCNA. The interaction was assayed by Western blotting with PCNA antibody. […] (d) Effect of PCNA (0.375, 0.75, 1.5 and 3 μM) on ZRANB3 nuclease activity assayed with the wild-type ZRANB3 and ZRANB3 PCNA binding mutants (ZRANB3-PIP*, ZRANB3-ΔAPIM and ZRANB3-PIP*ΔAPIM). (e) Quantification of nuclease activities in the presence of increasing concentrations of PCNA. […]
Biotinylated PIP-box and APIM-motif peptides were synthesized by Genscript. […] The beads were subsequently washed with the same buffer to remove unbound PCNA, after which they were boiled in the SDS-PAGE loading buffer, and analysed by anti-PCNA Western blotting (ab18197, 1:1,000 dilution).

With Nc1ncnc2c1ncn2[C@@H]1O[C@H](COP(=O)(O)OP(=O)(O)NP(=O)(O)O)[C@@H](O)[C@H]1O [AMP-PNP] the “ZRANB3 endonuclease activity on substitution of ATP by non-hydrolysable ATP analogue” value (ZRANB3) was “complete loss of activity”.

In the case of Nc1ncnc2c1ncn2[C@@H]1O[C@H](COP(=O)(O)OP(=O)(O)CP(=O)(O)O)[C@@H](O)[C@H]1O [AMP-PCP], the “ZRANB3 endonuclease activity on substitution of ATP by non-hydrolysable ATP analogue” value (ZRANB3) is reported as “complete loss of activity”.

For “APIM*: biotinylated ZRANB3 APIM motif peptide with F1075A mutation (pull-down)”, the “Interaction with PCNA (pull-down)” value (PCNA) was “abrogated the interaction with PCNA”.

With Nc1ncnc2c1ncn2[C@@H]1O[C@H](CO[P@](=O)(O)O[P@](=O)(O)O[P@@](=O)(O)S)[C@@H](O)[C@H]1O [ATPγS] the “ZRANB3 endonuclease activity on substitution of ATP by non-hydrolysable ATP analogue” value (ZRANB3) was “complete loss of activity”.
